Legend:
[1] = target: T1, Avi-KRAS G12D (1-169) GppNHp/RAF1 RBD-3xFLAG (52-151) (Homo sapiens, UniProt P01116, G12D); test: Raf1-KRAS G12D-GppNHP disruption HTRF assay (Biological Example 1); format: binding
T1 construct: Avi-KRAS G12D (1-169)
Outline: (§1)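 Percent activity versus DMSO (100%) was derived from HTRF signal after KRAS–RAF1 RBD protein mix was incubated 1 h at room temperature with shaking and detection reagents were added for a further 1 h.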

[2] = target: T2, Avi-KRAS G12R (1-169) GppNHp/RAF1 RBD-3xFLAG (52-151) (Homo sapiens, UniProt P01116, G12R); test: Raf1-KRAS G12R-GppNHP disruption HTRF assay (Biological Example 1); format: binding
T2 construct: Avi-KRAS G12R (1-169)
Outline: as §1

[3] = target: T3, Avi-KRAS G12V (1-169) GppNHp/RAF1 RBD-3xFLAG (52-151) (Homo sapiens, UniProt P01116, G12V); test: Raf1-KRAS G12V-GppNHP disruption HTRF assay (Biological Example 1); format: binding
T3 construct: Avi-KRAS G12V (1-169)
Outline: as §1

[4] = target: T4, Avi-KRAS WT (1-169) GppNHp/RAF1 RBD-3xFLAG (52-151) (Homo sapiens, UniProt P01116); test: Raf1-KRAS WT-GppNHP disruption HTRF assay (Biological Example 1); format: binding
T4 construct: Avi-KRAS WT (1-169)
Outline: as §1

[5] = test system: GP2d cells (KRAS G12D); test: Cell-based pERK HTRF assay in GP2d cell (Biological Example 2); settings: GP2d (KRAS G12D) cells, pERK HTRF
Outline: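 Cells grown in DMEM with 10% FBS were exposed to compound for 60 min at 0.25% DMSO, using a 9-point half-log series starting at 1 μM or 100 nM. Lysates were then mixed with d2 and Eu cryptate antibodies for 4–24 h at room temperature, and pERK was read by HTRF.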

[6] = test system: SW620 cells (KRAS G12V); test: Cell-based pERK HTRF assay in SW620 cell (Biological Example 4); settings: pERK HTRF
Outline: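 Read-out: HTRF pERK signal (excitation 320 nm, emission 615 nm) from lysates of SW620 cells after 4 h compound exposure. Dose range was 9 points, half-log steps from 1 μM, in 0.25% DMSO; antibody incubation ran 4–24 h at room temperature.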

[7] = Homo sapiens, SW-620, SW620 (KRAS G12V) cells
[8] = KRAS G12D, GppNHp-loaded, Table 11
[9] = KRAS G12R, GppNHp-loaded, Table 11
[10] = KRAS G12V, GppNHp-loaded, Table 11
[11] = KRAS WT, GppNHp-loaded, Table 11
[12] = KRAS G12D, GppNHp-loaded, class symbols
[13] = KRAS G12R, GppNHp-loaded, class symbols
[14] = KRAS G12V, GppNHp-loaded, class symbols
[15] = KRAS WT, GppNHp-loaded, class symbols
[16] = Homo sapiens, SW-620, SW620 (KRAS G12V) cells, class symbols

T4 sequence (P01116 1-169 isoform P01116-2): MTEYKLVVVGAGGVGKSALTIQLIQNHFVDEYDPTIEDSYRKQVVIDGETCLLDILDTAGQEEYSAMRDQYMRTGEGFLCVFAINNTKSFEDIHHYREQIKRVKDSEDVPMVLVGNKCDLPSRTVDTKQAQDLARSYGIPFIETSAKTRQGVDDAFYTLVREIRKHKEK
T2 sequence (P01116 1-169 isoform P01116-2 G12R): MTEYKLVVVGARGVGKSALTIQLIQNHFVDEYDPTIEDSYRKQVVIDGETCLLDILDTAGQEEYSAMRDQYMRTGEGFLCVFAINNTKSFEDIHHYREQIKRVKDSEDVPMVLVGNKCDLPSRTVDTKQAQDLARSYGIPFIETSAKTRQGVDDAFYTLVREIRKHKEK
T1 sequence (P01116 1-169 isoform P01116-2 G12D): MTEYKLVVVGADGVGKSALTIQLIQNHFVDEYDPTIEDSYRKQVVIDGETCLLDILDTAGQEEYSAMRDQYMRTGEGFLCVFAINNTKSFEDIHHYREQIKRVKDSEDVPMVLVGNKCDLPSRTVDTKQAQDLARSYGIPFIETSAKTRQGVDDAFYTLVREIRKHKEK
T3 sequence (P01116 1-169 isoform P01116-2 G12V): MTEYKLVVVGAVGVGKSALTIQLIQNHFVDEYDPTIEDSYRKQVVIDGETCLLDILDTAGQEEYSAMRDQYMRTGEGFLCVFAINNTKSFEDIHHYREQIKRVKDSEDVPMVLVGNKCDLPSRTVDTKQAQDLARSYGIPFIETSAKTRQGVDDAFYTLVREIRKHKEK

| IC50 ([1]; KRAS G12D-GppNHp/RAF1 RBD HTRF) [nM] | IC50 ([2]; KRAS G12R-GppNHp/RAF1 RBD HTRF) [nM] | IC50 ([3]; KRAS G12V-GppNHp/RAF1 RBD HTRF) [nM] | IC50 ([4]; KRAS WT-GppNHp/RAF1 RBD HTRF) [nM] | IC50 ([5]; GP2d) [nM] | IC50 [6, 7] [nM] | Compound | also measured |
| --- | --- | --- | --- | --- | --- | --- | --- |
| < 100 | < 100 | 100 to 1000 | 100 to 1000 | < 100 | < 100 | CCN(c1nc(OC[C@@]23CCCN2C[C@H](F)C3)nc2c(F)c(-c3ccc(F)c4sc(N)c(C#N)c34)c(C(F)(F)F)cc12)[C@H]1C[C@@H](C)N(C(=O)OC)C1 (atropisomer, axis not shown) [Compound 557] |  |
| 100 to 1000 | 1000 to 10000 | 1000 to 10000 | 100 to 1000 | < 100 | < 100 | CCN(c1nc(OC[C@@]23CCCN2C[C@H](F)C3)nc2c(F)c(-c3ccc(F)c4sc(N)c(C#N)c34)c(C(F)(F)F)cc12)[C@@H]1C[C@H](C)N(C(=O)N(C)C)C1 (atropisomer, axis not shown) [Compound 545] |  |

Second part, the compound before the results:

| Compound | IC50 ([1]; KRAS G12D-GppNHp/RAF1 RBD HTRF) [nM] | IC50 ([2]; KRAS G12R-GppNHp/RAF1 RBD HTRF) [nM] | IC50 ([3]; KRAS G12V-GppNHp/RAF1 RBD HTRF) [nM] | IC50 ([4]; KRAS WT-GppNHp/RAF1 RBD HTRF) [nM] | IC50 ([5]; GP2d) [nM] | IC50 [6, 7] [nM] | also measured |
| --- | --- | --- | --- | --- | --- | --- | --- |
| C[C@H]1COC[C@H](C)N1c1nc(OC[C@@]23CCCN2C[C@H](F)C3)nc2c(F)c(-c3ccc(F)c4sc(N)c(C#N)c34)c(C(F)(F)F)cc12 [Compound 200] |  |  |  |  | < 100 | 100 to 1000 | IC50 [1, 8]: 1000 to 10000 nM; IC50 [2, 9]: 1000 to 10000 nM; IC50 [3, 10]: 1000 to 10000 nM; IC50 [4, 11]: 1000 to 10000 nM |
| CCN(c1nc(OC[C@@]23CCCN2C[C@H](F)C3)nc2c(F)c(-c3ccc(F)c4sc(N)c(C#N)c34)c(C(F)(F)F)cc12)[C@H]1CCN(C(=O)C(C)(F)F)C1 (atropisomer, axis not shown) [Compound 587] |  |  |  |  |  |  | IC50 [1, 12]: < 100 nM; IC50 [2, 13]: < 100 nM; IC50 [3, 14]: < 100 nM; IC50 [4, 15]: < 100 nM; IC50 ([5]; GP2d, class symbols): < 100 nM; IC50 [6, 16]: < 100 nM |
| CCN(c1nc(OC[C@@]23CCCN2C[C@H](F)C3)nc2c(F)c(-c3ccc(F)c4sc(N)c(C#N)c34)c(C(F)(F)F)cc12)[C@H]1CCN(C(=O)[C@@H](C)OC)[C@@H]1C (atropisomer, axis not shown) [Compound 806] |  |  |  |  |  |  | IC50 [1, 12]: < 100 nM; IC50 [2, 13]: < 100 nM; IC50 [3, 14]: 100 to 1000 nM; IC50 [4, 15]: < 100 nM; IC50 ([5]; GP2d, class symbols): < 100 nM; IC50 [6, 16]: < 100 nM |
| N#Cc1c(N)sc2c(F)ccc(-c3c(C(F)(F)F)cc4c(N5CCn6nncc6C5)nc(OC[C@@]56CCCN5C[C@H](F)C6)nc4c3F)c12 [Compound 243] |  |  |  |  | < 100 | < 100 | IC50 [1, 8]: 100 to 1000 nM; IC50 [2, 9]: 100 to 1000 nM; IC50 [3, 10]: 100 to 1000 nM; IC50 [4, 11]: 100 to 1000 nM |
| CN(c1nc(OC[C@@]23CCCN2C[C@H](F)C3)nc2c(F)c(-c3ccc(F)c4sc(N)c(C#N)c34)c(C(F)(F)F)cc12)[C@@H]1CC(=O)N(Cc2ccccc2)C1 [Compound 452] | 100 to 1000 | 100 to 1000 | 100 to 1000 | 100 to 1000 | < 100 | 100 to 1000 |  |
| CC(=O)N1C[C@@H]2OCCN(c3nc(OC[C@@]45CCCN4C[C@H](F)C5)nc4c(F)c(-c5ccc(F)c6sc(N)c(C#N)c56)c(C(F)(F)F)cc34)[C@@H]2C1 [Compound 481] | 100 to 1000 | 100 to 1000 | 1000 to 10000 | 100 to 1000 | < 100 | 100 to 1000 |  |
| N#Cc1c(N)sc2c(F)ccc(-c3c(C(F)(F)F)cc4c(N5CCCN6C(=O)CCC6C5)nc(OCC56CCCN5CC(F)C6)nc4c3F)c12 (stereo not drawn) [Compound 490] | 100 to 1000 | 1000 to 10000 | 1000 to 10000 | 1000 to 10000 |  |  | IC50 [5]: 100 to 1000 nM; IC50 ([6]; SW620 (KRAS G12V) cells): 100 to 1000 nM |
| Cc1nc(OC[C@@]23CCCN2C[C@H](F)C3)nc2c(F)c(-c3ccc(F)c4sc(N)c(C#N)c34)c(C(F)(F)F)cc12 [Compound 318, 2-amino-7-fluoro-4-[8-fluoro-2-[[(2R,8S)-2-fluoro-1,2,3,5,6,7-hexahydropyrrolizin-8-yl]methoxy]-4-methyl-6-(trifluoromethyl)quinazolin-7-yl]benzothiophene-3-carbonitrile] | 100 to 1000 | 100 to 1000 | 1000 to 10000 | 1000 to 10000 | < 100 | 100 to 1000 |  |
| CCN(c1nc(OC[C@@]23CCCN2C[C@H](F)C3)nc2c(F)c(-c3ccc(F)c4sc(N)c(C#N)c34)c(C(F)(F)F)cc12)[C@H]1C[C@@H]2CCOC(=O)N2C1 (atropisomer, axis not shown) [Compound 665] |  |  |  |  |  |  | IC50 [1, 12]: 100 to 1000 nM; IC50 [2, 13]: 100 to 1000 nM; IC50 [3, 14]: 100 to 1000 nM; IC50 [4, 15]: 100 to 1000 nM; IC50 ([5]; GP2d, class symbols): < 100 nM; IC50 [6, 16]: < 100 nM |
